Measurements taken from patent US8673942B2, “Fused ring compounds and use thereof” (Takeda Pharmaceutical Company Limited, priority 2008, dated 2014).

What was measured:
[1] = biological target: T1, human liver GK (GST-hLGK1) (Homo sapiens, UniProt P35557); experiment: Measurement of GK activation value; assay type: biochemical; conditions: GST-hLGK1 6 μg/mL, 5 mmol/L D-glucose, 50 μmol/L Mant-ATP, 60 min at 37° C.; concentration at midpoint between maximum activity value and control activity value
T1 construct: with a BamHI site added to immediately before the initiation codon; made in house; host or cells: Escherichia coli BL21 (Stratagene), plasmid pGEX6P-2/hLGK1
T1 sequence (P35557 1-464 isoform P35557-3): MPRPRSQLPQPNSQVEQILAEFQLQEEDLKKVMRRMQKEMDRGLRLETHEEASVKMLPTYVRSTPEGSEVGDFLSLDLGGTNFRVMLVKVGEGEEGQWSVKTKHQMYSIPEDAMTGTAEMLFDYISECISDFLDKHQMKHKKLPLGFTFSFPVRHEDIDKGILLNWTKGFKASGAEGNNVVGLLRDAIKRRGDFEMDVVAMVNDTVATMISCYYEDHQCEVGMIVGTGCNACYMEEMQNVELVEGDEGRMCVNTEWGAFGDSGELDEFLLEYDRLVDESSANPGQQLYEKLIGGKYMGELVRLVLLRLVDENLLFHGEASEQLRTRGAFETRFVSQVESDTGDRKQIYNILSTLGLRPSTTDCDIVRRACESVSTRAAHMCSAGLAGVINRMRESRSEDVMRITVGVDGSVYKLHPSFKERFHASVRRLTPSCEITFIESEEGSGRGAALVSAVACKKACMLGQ
Description: GK enzyme reactions were performed in 50 mmol/L HEPES pH 7.4, 200 mmol/L KCl, 5 mmol/L MgCl2, 2 mmol/L DTT, containing 50 μmol/L 2′-(or -3′)-O—(N-methylanthraniloyl)adenosine 5′-triphosphate (Mant-ATP) (Jena Bioscience GmbH), 5 mmol/L D-glucose, 5% DMSO and 6 μg/mL GST-hLGK1 obtained in Reference Example 2A in a total volume 50 μL. The reactions were performed in 384 well black plates (Nalge Nunc International K.K.). Prior to the reaction, the enzyme and test compound were incubated for 10 min at 37° C., and 25 mM D-glucose solution (10 μL) was added to start the reaction.
After the incubation for 60 min at 37° C., the reaction was quenched by adding 25 μL of a quenching solution (containing 200 mM HEPES (pH 7.4), 20 mM MgCl2, 200 mM EDTA, 0.03% Triton-X 100, 0.3% Coating 3 reagent (Caliper Life Sciences, Inc.)).
Mant-ATP (substrate, 2′- (or -3′)-O—(N-methylanthraniloyl) adenosine 5′-triphosphate) and Mant-ADP (reaction resultant product) were separated from each well after the reaction by a microchip type capillary electrophoresis apparatus 250 HTS (Caliper Life Sciences, Inc.). The reaction rate [(reaction resultant product peak height)/(reaction resultant product peak height+substrate peak height)×100(%)] was calculated from the ratio of the substrate peak height and reaction resultant product peak height obtained by fluorescence detection (excitation wavelength 355 nm, measurement wavelength 460 nm) and used as the index of GK activity.
As a control group, the reaction rate was calculated in the same manner as above without the test compounds.
The percentage obtained by dividing the reaction rate of the well added with each concentration of the test compound (test compound addition group) by the reaction rate of the control group was taken as the GK activity value, and the concentration of the test compound at the midpoint between the maximum activity value of the test compound addition group and the control group activity value is shown as EC50 value.

SMILES | EC50 [1] [nM] | melting point [°C]
CS(=O)(=O)c1ccc(Oc2cc(OCC3CCOCC3)c3[nH]c(C4=NCC(CCO)S4)cc3c2)cc1 (stereo not drawn) [Example 19, 2-(2-{5-[4-(Methylsulfonyl)phenoxy]-7-(tetrahydro-2H-pyran-4-ylmethoxy)-1H-indol-2-yl}-4,5-dihydro-1,3-thiazol-5-yl)ethanol] | 44 | 104 to 105
COc1cc(Oc2ccc(S(C)(=O)=O)nc2)cc2cc(C3=NCC(CC(=O)NC[C@H](C)O)S3)[nH]c12 (stereo partly drawn) [Example 80, N-[(2S)-2-Hydroxypropyl]-2-[2-(7-methoxy-5-{[6-(methylsulfonyl)pyridin-3-yl]oxy}-1H-indol-2-yl)-4,5-dihydro-1,3-thiazol-5-yl]acetamide] | 37 | 185 to 186
COc1cc(Oc2ccc(S(C)(=O)=O)nc2)cc2cc(C3=NCC(CC(=O)NC[C@@H](C)O)S3)[nH]c12 (stereo partly drawn) [Example 81, N-[(2R)-2-Hydroxypropyl]-2-[2-(7-methoxy-5-{[6-(methylsulfonyl)pyridin-3-yl]oxy}-1H-indol-2-yl)-4,5-dihydro-1,3-thiazol-5-yl]acetamide] | 38 | 185 to 186
COc1cc(Oc2ccc(S(C)(=O)=O)nc2)cc2cc(C3=NCC(CC(=O)N4CCOCC4)S3)[nH]c12 (stereo not drawn) [Example 82, 7-Methoxy-5-{[6-(methylsulfonyl)pyridin-3-yl]oxy}-2-{5-[2-(morpholin-4-yl)-2-oxoethyl]-4,5-dihydro-1,3-thiazol-2-yl}-1H-indole] | 42 | 148 to 149

More lines, now with the values ahead:

EC50 [1] [nM] | melting point [°C] | SMILES
37 | 175 to 176 | COCCNC(=O)CC1CN=C(c2cc3cc(Oc4ccc(S(C)(=O)=O)nc4)cc(OC)c3[nH]2)S1 (stereo not drawn) [Example 78, N-(2-Methoxyethyl)-2-[2-(7-methoxy-5-{[6-(methylsulfonyl)pyridin-3-yl]oxy}-1H-indol-2-yl)-4,5-dihydro-1,3-thiazol-5-yl]acetamide]
35 | 206 to 207 | COc1cc(Oc2ccc(S(C)(=O)=O)nc2)cc2cc(C3=NCC(CC(=O)N(C)C)S3)[nH]c12 (stereo not drawn) [Example 79, 2-[2-(7-Methoxy-5-{[6-(methylsulfonyl)pyridin-3-yl]oxy}-1H-indol-2-yl)-4,5-dihydro-1,3-thiazol-5-yl]-N,N-dimethylacetamide]
